Data reported in patent US20100022018A1 (priority 2006, published 2010).
Where two headings read alike, the source gives them in different places.

Tests used:
Type in all cases: biochemical
[1] = molecular target: T1, papain inactivated by methyl methanethiolsulfonate (Carica papaya, UniProt P00784)
T1 construct: purchased Sigma Chemical Company (St. Louis, Mo.)
T1 sequence (P00784 134-345): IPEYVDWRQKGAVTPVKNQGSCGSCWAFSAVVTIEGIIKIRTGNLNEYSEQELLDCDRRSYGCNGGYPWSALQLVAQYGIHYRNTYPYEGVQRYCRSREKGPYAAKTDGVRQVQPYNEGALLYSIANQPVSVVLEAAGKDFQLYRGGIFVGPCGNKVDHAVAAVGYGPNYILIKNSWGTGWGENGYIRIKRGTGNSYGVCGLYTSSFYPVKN

[2] = molecular target: T2, papain (Carica papaya, UniProt P00784); test: Background activity of papain inactivated by disulfide-forming reagents; settings: compared with papain inactivated with methyl methanethiolsulfonate
T2 construct: purchased Sigma Chemical Company (St. Louis, Mo.)
T2 sequence (P00784 134-345): T1 sequence (P00784 134-345)

[3] = molecular target: T2, papain; test: Inactivation of activated papain by metal salts; settings: metal salt added to equal 1.1× the molar amount of papain
Description: Papain was activated as described above, and the DTT was removed by gel filtration using G-25. Papain was then inactivated by adding a slight molar excess of a mono, di, tri, or tetra valent metal. […] The inhibition by the metals was essentially instantaneous.
This papain was used to assay H2S as follows.

[4] = molecular target: T3, papain inactivated by 2,2′-dithiobis-pyridine (Carica papaya, UniProt P00784)
T3 construct: purchased Sigma Chemical Company (St. Louis, Mo.)
T3 sequence (P00784 134-345): T1 sequence (P00784 134-345)

[5] = molecular target: T4, papain inactivated by 4,4′-dithiobis-pyridine (Carica papaya, UniProt P00784)
T4 construct: purchased Sigma Chemical Company (St. Louis, Mo.)
T4 sequence (P00784 134-345): T1 sequence (P00784 134-345)

[6] = 50 pmoles of DTT added, turnover of 600/min
[7] = compared with papain inhibited by methyl methanethiolsulfonate

O[C@H](CS)[C@H](O)CS (racemic) [DTT, dithiothreitol]
rate of appearance of p-nitroanaline [1]: 0.00026 M/min
amount of active papain in 200 μl [1, 6]: 72 pmol
concentration of active papain needed to generate product at this rate [1, 6]: 360 nM
Δ A410/min ([1]; 10 picomoles of DTT added, 1 minute incubation at 25° C., Tris pH 8.0): 0.52 min⁻¹
Δ A410/min ([1]; 20 picomoles of DTT added, 1 minute incubation at 25° C., Tris pH 8.0): 0.96 min⁻¹
Δ A410/min ([1]; 50 picomoles of DTT added, 1 minute incubation at 25° C., Tris pH 8.0): 1.9 min⁻¹

c1ccc(SSc2ccccn2)nc1 [2,2′-dithiobis-pyridine]
background level of activity exhibited by the inactivated papain [2]: higher than papain inactivated with methyl methanethiolsulfonate

c1cc(SSc2ccncc2)ccn1 [4,4′-dithiobis-pyridine]
background level of activity exhibited by the inactivated papain [2]: higher than papain inactivated with methyl methanethiolsulfonate

O=[N+]([O-])[O-].[Ag+] [AgNO3]
inhibition of the activity of the activated papain [3]: > 99.5%

N[C@@H](CS)C(=O)O [Cysteine, cysteine]
Δ A410/min ([1]; 20 picomoles added, 1 min incubation): 0.45 min⁻¹
Δ A410/min ([1]; 50 picomoles added, 1 min incubation): 1.1 min⁻¹
molecules of papain activated for each molecule of activator ([1]; disulfide linkage inactivated papain): < 1
efficiency of reactivation of inactivated papain [4, 7]: somewhat more efficient
efficiency of reactivation of inactivated papain [5, 7]: somewhat more efficient

[Cl][Hg][Cl] [HgCl2]
inhibition of the activity of the activated papain [3]: > 99.9%

sodium sulfide
molecules of activator for every one molecule of papain activated [1]: ~5
efficiency of reactivation of inactivated papain [4]: somewhat more efficient
efficiency of reactivation of inactivated papain [5]: somewhat more efficient
